Here are results for eight compounds from patent US5861387A, “Controlled release systems and low dose androgens” (Endorecherche Inc., priority 1995, dated 1999).

The test system of one data set is masculinizing activity. The note with it: low blood concentrations; cited from earlier work.
Data set [1] deals with human breast cancer ZR-75-1 cells, androgen receptor. Description: Androgenic (androgen receptor) activity in ZR-75-1 cells: cell growth and GCDFP-15/GCDFP-24 secretion. It counts as cell-based. The method, then:
Maintenance of stock cultures The ZR-75-1 human breast cancer cell line can be obtained from the American Type Culture Collection (Rockville, Md.). The cells are routinely cultured in phenol red-free RPMI 1640 medium supplemented with 10 nM E2, 15 mM Hepes, 2 mM L-glutamine, 1 mM sodium pyruvate, 100 IU penicillin per ml, 100 μg streptomycin sulfate per ml, and 10% (v/v) fetal bovine serum (FBS), in a water-saturated atmosphere of 95% air: 5% CO2 at 37° C.
Stock cultures in their logarithmic growth phase are harvested with 0.05% trypsin/0.02% EDTA (w/v) in Hanks' balanced salts solution and resuspended in E2- and phenol red-free RPMI 1640 medium containing 5% (v/v) dextran-coated charcoal (DCC)-treated FBS and 500 ng of bovine insulin per ml, but otherwise supplemented as described above for maintenance of stock cultures. Cells were plated in 24-well Linbro culture plates (Flow Laboratories) at a final density of 0.5-4.0×10^4 cells/well.
Fourty-eight hours after plating, fresh SD medium containing the appropriate concentrations of steroids are added. […] The incubation media are replaced every other day and cells are harvested by trypsinization after 12 days of treatment, unless otherwise indicated. Cell number can be determined with a Coulter Counter.
Calculations and statistical analyses Apparent IC50 values are calculated using an iterative least squares regression (Rodbard, Endocrinology 94:1427-1437,1974), while apparent inhibition constants (Ki values) are calculated according to Cheng and Prusoff (Biochem. Pharmacol. 22: 3099-3108,1973).
In addition to inhibition of cell growth, the secretion of two glycoproteins, namely gross cystic disease fluid protein-15 (GCDFP-15) and GCDFP-24 is markedly stimulated by androgens (Simard et al., Mol. Endocrinol. 3: 694-702, 1989; Simard et al., Endocrinology 126: 3223-3231, 1990).
(§1) To assist in determining the activity of the potential compounds on the various steroid receptors, androgen, glucocorticoid, progesterone and estrogen-receptor-mediated activities of synthetic progestins and anabolic steroids can be measured in ZR-75-1 human breast cancer cells using cell growth as well as GCDFP-15 and GCDFP-24 release as parameters of response (Poulin and Labrie, Cancer Res. 46: 4933-4937, 1986; Poulin et al., Breast Cancer Res. Treatm. 12: 213-225, 1988; Poulin et al., Breast Cancer Res. Treatm. 13: 161-172, 1989; Poulin et al., Breast Cancer Res. Treatm. 13: 265-276, 1989; Simard et al., Mol. Endocrinol. 3: 694-702, 1989; Simard et al., Endocrinology 126: 3223-3231, 1990).
In order to analyze the interactions of synthetic progestins or anabolic steroids with the androgen receptor (AR) and glucocorticoid receptor (GR) in their inhibitory action on cell growth, one takes advantage of the additivity of the anti-proliferative effects of androgens and glucocorticoids in this cell line (Poulin et al., Breast Cancer Res. Treatm. 12: 213-225, 1988; Hatton and Labrie, F., unpublished data). […] On the other hand, the effect of a putative androgen can similarly be measured following saturation of GR by dexamethasone (DEX). […] Thus, in the presence of excess androgen (1 μM DMT) in the presence of E2 and insulin, glucocorticoid effects can be assessed with precision and with no interference by the other receptors. The same applies to study of the role of AR when the cells are incubated in the presence of excess glucocorticoid (3 μM DEX), in the presence of E2 and insulin.

Another data set has as its system endometriosis. The note with it: in vivo; cited from earlier work.
Data set [2] deals with ZR-75-1 human breast cancer cells, glucocorticoid receptor. To be noted: detailed kinetic studies.
Description: as §1
In order to analyze the interactions of synthetic progestins or anabolic steroids with the androgen receptor (AR) and glucocorticoid receptor (GR) in their inhibitory action on cell growth, one takes advantage of the additivity of the anti-proliferative effects of androgens and glucocorticoids in this cell line (Poulin et al., Breast Cancer Res. Treatm. 12: 213-225, 1988; Hatton and Labrie, F., unpublished data). […] On the other hand, the effect of a putative androgen can similarly be measured following saturation of GR by dexamethasone (DEX). […]

The subject of data set [3] is ZR-75-1 human breast cancer cells, progesterone receptor. Description: Progesterone receptor-mediated inhibition of ZR-75-1 cell growth. The data set is classed as cell-based. The method, then:
These two characteristics of ZR-75-1 cell growth permit study of the extent to which a tested compound's effects on ZR-75-1 cells are attributed to its interaction with PgR by evaluating the effect of insulin and/or estrogen addition on the growth response measured at the end of a 15-day incubation of ZR-75-1 cells with the test compounds.

Data set [4] concerns estrogen (ER) and progesterone (PgR) receptor contents in ZR-75-1 cells. The note with it: cited from earlier work.
The next data set deals with estrogenic activity. To be noted: cited from earlier work.
The subject of another data set is bone. To be noted: in vivo; cited from earlier work.

Turning to `C[C@]12CCC(=O)C[C@@H]1CC[C@@H]1[C@@H]2CC[C@]2(C)[C@@H](O)CC[C@@H]12` [DHT, 5α-dihydrotestosterone], the masculinizing activity result with masculinizing activity is recorded as “considerable masculinizing activity even at low blood concentrations”. The “concentration exerting maximal inhibitory effect on the AR” value in data set [1] (detailed kinetic studies, ZR-75-1) is 1 µM. On to `C[C@]12CCC(=O)C=C1CC[C@@H]1[C@@H]2CC[C@@]2(C)[C@H]1CC[C@]2(C)O` [methyltestosterone, 17α-methyltestosterone], for which, in the data set with endometriosis, the symptoms of endometriosis entry is reported as “relieve the symptoms of endometriosis”.

For the compound `C[C@@H]1C[C@H]2[C@@H]3CCC4=CC(=O)C=C[C@]4(C)[C@@]3(F)[C@@H](O)C[C@]2(C)[C@@]1(O)C(=O)CO` [DEX, dexamethasone], the “concentration exerting maximal inhibitory effect on the GR” value in data set [2] was determined as 3 µM. `CCC(=O)[C@@]1(C)CC[C@H]2[C@@H]3CCC4=CC(=O)CCC4=C3CC[C@@]21C` [R5020]: the “condition under which antiproliferative effect is observed” value in data set [3] is “observed only under E1 -stimulated conditions”. Also, the “effect of insulin on inhibition via PgR” value in data set [3] (addition of insulin) is on record as “completely reverses the inhibition”. `CC(C)(O)C(=O)Nc1ccc([N+](=O)[O-])c(C(F)(F)F)c1` [hydroxyflutamide]: the “effect on androgenic action of DHT” value in data set [4] is on record as “competitively reversed”. Take `C#CC1(O)CC[C@H]2[C@@H]3CCC4=CC(=O)CC[C@@H]4[C@H]3CC[C@@]21CC` (mixture of isomers) [norgestrel]: in the data set with estrogenic activity, the estrogenic activity entry is given as “possess estrogenic activity”. In data set [1] (ZR-75-1 cells, low concentrations), the androgenic activity result is given as “possess androgenic activity at low concentrations”. Regarding `C[C@]12CC[C@H]3[C@@H](CCC4=CC(=O)CC[C@@H]43)[C@@H]1CC[C@@H]2O` [nandrolone], in the data set on bone, the androgenic side effects is 50 % of patients and the “cortical bone mineral content” value was “increased cortical bone mineral content”. On to `C#C[C@]1(O)CC[C@H]2[C@@H]3CCC4=CC(=O)CC[C@@H]4[C@H]3CC[C@@]21C` [norethisterone], for which the estrogenic activity entry in the data set with estrogenic activity is “possess estrogenic activity”.
